Tests used:
S. gordonii DL1 = test: Commensal biofilm inhibition, S. gordonii DL1 (crystal violet, OD562); type: cell-based, Streptococcus gordonii; details: for S. gordonii biofilm: 25 μM
Protocol: The bacterial strains, S. mutans UA159, S. gordonii DL1, and S. sanguinis SK36 were inoculated statically at 37° C. under 5% CO2 in Todd Hewitt Broth (THB) for 24 h. The cultures were then diluted with fresh THB (1:5) and reinoculated until optical density at 470 nm (OD470) reached 1. The optical density was read using BioTek 800TS microplate reader at 470 nm for bacterial growth and 562 nm for biofilm stained with crystal violet. Data was plotted in Graphpad Prism9.
Biofilm inhibition assays. Biofilm inhibition assays were performed in polystyrene microtiter 96 well plates. Stock solutions were prepared in chemically defined medium (CDM, JRH Biosciences, Lenexa, KS) with 2% sucrose, 1% bacteria cultures and various concentrations of the small molecule inhibitors to examine their activity against biofilm formation as described^69, 70. These stocks were assayed in 96 well plates in triplicate and incubated at 37° C. and 5% CO2 for 16 h. After reading optical density for bacterial growth, the plate was gently washed with water, dried, and stained with crystal violet, and then gently rinsed again with deionized water leaving the stained biofilm at the bottoms of the wells. Biofilms was dissolved in 200 μL of 30% acetic acid and absorbance at 562 nm was used read to determine biofilm biomass. Each assay was carried out at least in triplicate. Biofilm inhibitory concentration (IC50) of the compounds was determined by serial dilutions.
All bacterial strains (S. mutans UA159, S. gordonii DL1, and S. sanguinis SK36) were inoculated statically at 37° C. under 5% CO2 environment in Todd Hewitt Broth (THB) for 24 h^[61]. […] The optical density was read using BioTek 800 TS absorbance reader at 470 nm for bacterial growth and 562 nm for biofilm stained with crystal violet. […]
Biofilm inhibition assays were performed in polystyrene microtiter 96-well plates. […] After reading optical density for bacterial growth, the plate was washed, dried, and stained with 0.1% crystal violet which was again rinsed well with deionized water leaving the stained biofilm at the bottoms of the wells. […]

S. mutans UA159 biofilms = test: Fluorescence microscopy of S. mutans UA159 biofilms (Syto-9, Cascade Blue-dextran, propidium iodide); type: cell-based, Streptococcus mutans; details: 16 h
Protocol: FIGS. 1.6A-E illustrate the biofilm inhibitory activities of compound HA5. FIG. 1.6A illustrates that S. mutans UA159 were co-incubated with HA5 at various concentrations and biofilm formation was measured at OD562 using the crystal violet protocol. FIG. 1.6B illustrates Gtfs precipitated from S. mutans culture were co-incubated with HA5 at various concentrations and the glucan production was quantified using cascade blue staining and subsequent image processing with ImageJ. FIG. 1.6C illustrates representative fluorescence microscopy images of UA159 biofilms after 16 h of treatment with various concentrations of HA5. Bacterial cells were stained with Syto-9 (green, panel I); glucans were stained with Cascade Blue-dextran conjugated dye (blue, panel II); eDNA was stained with propidium iodide (red, panel III) and a merged image of all three staining images (panel IV). FIG. 1.6D illustrates S. mutans UA159, S. gordonii DL1 and S. sanguinis SK36 were co-incubated with HA5 at 50 μM and 100 μM and their growth were measured at OD470. FIG. 1.6E illustrates the chemical structure of HA5. Each of the biofilm, glucan and growth assays were conducted in triplicate and statistical significance was tested with one-way ANOVA. p<0.0001. […]
HA5 inhibits S. mutans UA159 biofilms, glucan production and eDNA levels. The antibiofilm activities of HA5 were further investigated by fluorescence microscopy imaging. […] In addition, propidium iodide was used to determine the presence of extracellular DNA (eDNA) in S. mutans biofilms. […] These findings reaffirm that HA5 inhibited S. mutans biofilms by preventing the synthesis of glucans and minimizing the presence of eDNA, two integral biofilm matrix elements crucial for S. mutans biofilm formation.
In addition, propidium iodide was used to determine the presence of extracellular DNA (eDNA) in S. mutans biofilms. […] These findings reaffirm that compound HA6 inhibited S. mutans biofilms by preventing the synthesis of glucans and minimizing the presence of eDNA, two integral biofilm matrix elements crucial for S. mutans biofilm formation.
Prior to in vivo evaluations, the biofilm inhibitory activities of PEHA5 were investigated. […] In addition, propidium iodide was used to determine the presence of eDNA in S. mutans biofilms. […] The effects of unloaded polymersome vesicles on S. mutans biofilm were compared with the control (1% DMSO) and the biofilm inhibitory activities of PEHA5 and HA5 at a single dose 50 μM concentration. […] In addition, the effect of PEHA5 on the planktonic growth of two commensal Streptococci, S. gordonii and S. Sanguinis were compared with the control (1% DMSO) and HA5 at a single treatment dose of 50 μM.
The biofilm inhibitory activities of PEHA6 were investigated. […] In addition, propidium iodide was used to determine the presence of eDNA in S. mutans biofilms. […] The effects of PEHA6 on S. mutans biofilm were compared with the control (1% DMSO) and the biofilm inhibitory activities of HA5 and HA6 side by side at a single dose, 50 μM concentration. […] In addition, the effect of PEHA6 on the planktonic growth of S. mutans was compared with HA5, HA6 at 50 μM.

SMILES: O=C1/C(=C/c2cc(O)c(O)cc2O)Oc2ccccc21 [HA5, 2-[(2′,4′,5′-Trihydroxyphenyl)methylidene]-2,3-dihydro-1-benzofuran-3-one]
- S. gordonii biofilm (S. gordonii DL1): minimal
- inhibition at 25 µM (S. gordonii DL1; Streptococcus gordonii, DL1): ~20%
- Syto-9 stained bacterial cells within biofilms (S. mutans UA159 biofilms; 5 μM): significant reduction in biofilms
- eDNA (propidium iodide) (S. mutans UA159 biofilms; 5 μM): noticeable reduction of eDNA
- glucans (Cascade Blue-dextran) (S. mutans UA159 biofilms; 5 μM): significantly reduced
- Syto-9 stained bacterial cells within biofilms (S. mutans UA159 biofilms; 50 μM): complete inhibition
- eDNA (propidium iodide) (S. mutans UA159 biofilms; 50 μM): almost complete absence of eDNA
- glucans (Cascade Blue-dextran) (S. mutans UA159 biofilms; 50 μM): no glucan formation was evident

SMILES: O=C1/C(=C/c2cc(O)c(O)c(O)c2)Oc2ccccc21 [HA6, 2-[(3′,4′,5′-Trihydroxyphenyl)methylidene]-2,3-dihydro-1-benzofuran-3-one]
- S. gordonii biofilm (S. gordonii DL1): did not significantly reduce the biofilms
- Syto-9 stained bacterial cells within biofilms (S. mutans UA159 biofilms; 15 μM): significant reduction in biofilms
- eDNA (propidium iodide) (S. mutans UA159 biofilms; 15 μM): noticeable reduction of eDNA
- glucans (Cascade Blue-dextran) (S. mutans UA159 biofilms; 15 μM): significantly reduced
- Syto-9 stained bacterial cells within biofilms (S. mutans UA159 biofilms; 30 μM): complete inhibition
- eDNA (propidium iodide) (S. mutans UA159 biofilms; 30 μM): almost complete absence of eDNA
- glucans (Cascade Blue-dextran) (S. mutans UA159 biofilms; 30 μM): no glucan formation was evident

From patent publication US20260315431A1, “NANOMATERIAL ENCAPSULATED BIOFILM INHIBITORS FOR DENTAL CARIES TREATMENT” (THE UAB RESEARCH FOUNDATION, priority 2023, published 2026)
